Assay results from patent US20190142748A1 (priority 2016, published 2019).

Experiments:
[1] = Chlorambucil stability in aqueous solution (LCMS area percent); assay type: physicochemical; details: chlorambucil in water (5% methanol)
[2] = oral; cited from earlier work
[3] = ten patients; cited from earlier work
[4] = target: plasma proteins, specifically albumin (Homo sapiens, UniProt P02768); details: in vitro; cited from earlier work
[5] = cited from earlier work

plasma proteins, specifically albumin, sequence (P02768 25-609): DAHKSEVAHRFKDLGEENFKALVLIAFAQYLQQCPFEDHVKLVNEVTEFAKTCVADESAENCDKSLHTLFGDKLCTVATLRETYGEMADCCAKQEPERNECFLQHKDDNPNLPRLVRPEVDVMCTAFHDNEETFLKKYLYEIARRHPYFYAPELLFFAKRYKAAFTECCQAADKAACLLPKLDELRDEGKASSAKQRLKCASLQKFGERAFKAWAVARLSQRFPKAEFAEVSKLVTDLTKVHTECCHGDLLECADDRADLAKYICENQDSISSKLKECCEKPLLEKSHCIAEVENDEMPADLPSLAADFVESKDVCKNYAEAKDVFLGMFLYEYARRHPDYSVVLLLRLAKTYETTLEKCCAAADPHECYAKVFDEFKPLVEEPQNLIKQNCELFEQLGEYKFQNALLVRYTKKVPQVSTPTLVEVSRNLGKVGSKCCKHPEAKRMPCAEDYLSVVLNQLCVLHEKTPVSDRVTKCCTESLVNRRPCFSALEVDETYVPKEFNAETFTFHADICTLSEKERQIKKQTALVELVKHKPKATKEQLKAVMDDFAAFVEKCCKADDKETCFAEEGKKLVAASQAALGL

O=C(O)CCCc1ccc(N(CCCl)CCCl)cc1 [Chlorambucil]
Chlorambucil (Area %) ([1]; t 0 h): 98.3 Area % | Chlorambucil (Area %) ([1]; t 1 h): 85.3 Area % | Chlorambucil (Area %) ([1]; t 2 h): 74.8 Area % | Chlorambucil (Area %) ([1]; t 3 h): 64.4 Area % | Chlorambucil (Area %) ([1]; t 4 h): 58.9 Area % | Chlorambucil (Area %) ([1]; t 5 h): 53.1 Area % | absorbed from the gastrointestinal tract [2]: > 70% | increase of median Tmax by food intake [3]: 2 fold | reduction of dose-adjusted AUC by food intake [3]: 20% | reduction of dose-adjusted Cmax by food intake [3]: 55% | bound to plasma proteins [4]: 99% | solubility in acetone and in alcohol ([5]; acetone, alcohol): freely soluble | solubility in water ([5]; water): practically insoluble
